According to EP0065226A2, “Sulfenamides, process for their preparation, their utilisation as medicines and their preparation” (BAYER AG, priority 1981, dated 1982):

test system: Leukozytenmigration; assay: Inhibition of leukocyte migration, drug-soaked sponge implanted under the dorsal skin of rats; assay type: in vivo, Ratten; conditions: Dosis, lokal 10 mg/Ratte; sponge soaked with compound under the dorsal skin
Excerpt: Die erfindungsgemäßen Sulfenamide sind auch […] wirksam. Diese Wirkung wird durch die Messung der Hemmung der Leukozytenmigration nach an sich bekannten Methoden nachgewiesen (vgl. Higgs et al., Biochemical Pharmacology 28, 1959 (1979) und Eur. J. Pharmacol. 66, 81 (1980)). In der nachfolgenden Tabelle 2 sind die Wirkungen einiger beispielhafter Sulfenamide nach lokaler Applikation, durch Einführen eines mit Wirkstoff getränkten Schwämmchens unter die Rückenhaut von Ratten, zusammengefaßt.

| SMILES | Hemmung der Leukozyten-migration (Kontrolle = 0 %) |
| --- | --- |
| c1ccc(SNc2nc[nH]n2)cc1 [Beispiel 11] | 76% |
| Cc1nnc(NSc2ccccc2)s1 [Beispiel 25] | 80% |
| COC(=O)c1ccc(SNc2nc[nH]n2)cc1 [Beispiel 30] | 31% |
| Cc1nnc(NSc2ccc(Cl)cc2)s1 [Beispiel 39] | 60% |
| Clc1ccc(SNc2nnc(N3CCOCC3)s2)cc1 [Beispiel 37] | 22% |
| Cc1nsc(NSc2ccc(Cl)cc2)n1 [Beispiel 17] | 53% |
| FC(F)(F)c1cc(SNc2nc[nH]n2)ccc1Cl [Beispiel 28] | 29% |
| c1ccc(SNc2ncccn2)cc1 [Beispiel 2] | 45% |
| c1ccc(SNc2nc(-c3ccccc3)ns2)cc1 [Beispiel 12] | 35% |
| Cc1nsc(NSc2ccccc2)n1 [Beispiel 16] | 67% |

biological target: T1, Plättchenlipoxygenase (Homo sapiens, UniProt P18054); assay: Inhibition of platelet lipoxygenase (HETE synthesis), metabolism of radiolabelled arachidonic acid in washed human platelets; assay type: cell-based; conditions: HETE-Synthese, gewaschene Humanthrombozyten; lowest concentration giving at least 50 % inhibition
T1 construct: der Metabolismus radioaktiv markierter Arachidonsäure an gewaschenen Humanthrombozyten herangezogen; endogenous in cells; host or cells: washed human platelets
T1 sequence (P18054 1-663): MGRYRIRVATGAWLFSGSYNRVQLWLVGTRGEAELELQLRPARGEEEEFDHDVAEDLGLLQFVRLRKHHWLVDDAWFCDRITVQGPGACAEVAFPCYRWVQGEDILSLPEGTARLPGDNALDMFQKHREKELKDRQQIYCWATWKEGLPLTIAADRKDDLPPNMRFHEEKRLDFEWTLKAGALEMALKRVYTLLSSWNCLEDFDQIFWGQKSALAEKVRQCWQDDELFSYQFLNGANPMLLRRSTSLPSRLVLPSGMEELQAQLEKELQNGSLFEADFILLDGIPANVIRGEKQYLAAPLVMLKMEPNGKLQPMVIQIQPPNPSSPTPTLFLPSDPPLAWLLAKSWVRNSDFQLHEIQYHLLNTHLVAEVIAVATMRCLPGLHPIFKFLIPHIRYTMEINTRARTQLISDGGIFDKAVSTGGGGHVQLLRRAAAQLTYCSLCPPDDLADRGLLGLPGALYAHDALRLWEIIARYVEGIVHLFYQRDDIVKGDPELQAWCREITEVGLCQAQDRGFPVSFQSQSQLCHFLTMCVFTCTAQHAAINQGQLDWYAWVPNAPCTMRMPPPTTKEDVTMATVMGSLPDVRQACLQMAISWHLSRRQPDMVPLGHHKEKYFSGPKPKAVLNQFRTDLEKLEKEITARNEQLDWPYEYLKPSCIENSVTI
Excerpt: Der Nachweis der lipoxygenasehemmenden Eigenschaften der Sulfenamide erfolgt analog der Methode von Bailey et al., J. Biol. Chem. 255, 5996, (1980) und nach Blackwell und Flower, Brostaglandins 16, 417 (1979). Bei dieser Testmethode wird der Metabolismus radioaktiv markierter Arachidonsäure an gewaschenen Humanthrombozyten herangezogen. Bei diesem in vitro Test werden die radioaktiv markierten Metaboliten aus dem Reaktionsansatz extrahiert und dünnschichtchromatographisch getrennt. Das Autoradiogramm wird am Dünnschicht-Scanner ausgewertet. Bei diesen Testbedingungen werden die markierten Metaboliten von der nicht umgesetzten Arachidonsäure getrennt und sind anschließend quantitativ auswertbar. Die Verteilung der Radioaktivität auf die während der Metabolisierung gebildeten Cyclooxygenaseprodukte Thromboxan B2 (TXB2) und 12-Hydroxy-5,8,10-heptadekatriensäure (HHT) bzw. das Lipoxygenaseprodukt 12-Hydroxy-5,8,11,14-eikosatetraensäure (HETE) unter dem Einfluß der Inhibitoren stellt ein Maß für die Hemmung der Enzyme dar.
Die Lipoxygenasehemmung der erfindungsgemäßen Sulfenamide läßt sich an der Hemmung der HETE-Synthese messen.. Es zeigt sich, daß die Synthese von TXB2und von HHT unbeeinflußt bleibt, während der Arachidonsäureumsatz abnimmt. Wie aus der nachfolgenden Tabelle ersichtlich ist, bewirken die Sulfenamide eine signifikante Hemmung der Plättchenlipoxygenase (HETE-Synthese).
Hemmung der Plättchenlipoxygenase (HETE-Synthese)

| Minimale effektive Hemmkonzen-zentration (mindestens 50 % Hemmung) | SMILES |
| --- | --- |
| 10^-6 g/ml | Clc1c(Cl)c(Cl)c(SNc2ncccn2)c(Cl)c1Cl [Beispiel 4] |
| 10^-6 g/ml | Clc1ccc(SNc2nc(-c3ccccc3)ns2)cc1 [Beispiel 13] |
| 10^-5 g/ml | Clc1ccc(SNc2ccccn2)cc1 [Beispiel 23] |
| 10^-6 g/ml | CC(C)(C)c1ccc(SNc2ncccn2)cc1 [Beispiel 6] |
| 3e-06 g/mL | CCCc1nsc(NSc2ccc(Cl)cc2)n1 [Beispiel 20] |
| 3e-06 g/mL | Clc1ccc(SNc2nc[nH]n2)cc1 [Beispiel 10] |
| 3e-06 g/mL | O=C1C(Sc2ccccc2)C(NSc2ccccc2)=NN1c1ccccc1 (stereo not drawn) [Beispiel 24] |
| 10^-6 g/ml | Cc1nc(NSc2ccccc2)ns1 [Beispiel 18] |
| 10^-6 g/ml | Cc1nsc(NSc2ccc(Cl)cc2)n1 [Beispiel 17] |
| 3e-06 g/mL | CCCc1nsc(NSc2ccccc2)n1 [Beispiel 19] |
| 10^-6 g/ml | Clc1ccc(SNc2ncccn2)cc1 [Beispiel 5] |
| 10^-6 g/ml | c1ccc(SNc2ncccn2)cc1 [Beispiel 2] |
| 3e-06 g/mL | c1ccc(SNc2nc(-c3ccccc3)ns2)cc1 [Beispiel 12] |
| 3e-06 g/mL | Cc1nsc(NSc2ccccc2)n1 [Beispiel 16] |
